# Data as given in ChEMBL document CHEMBL5543068, “Mitochondrial targeting derivatives of honokiol enhanced selective antitumor activity in NCI-H446 cells and decreased in vivo toxicity in Caenorhabditis elegans” (Eur J Med Chem, 2024).
# Calls of active or inactive are those of the source. The rule behind the calls is not given here.
# Experiments:
# NCI-H446 [1] = assay: Antiproliferative activity against human NCI-H446 cells assessed as reduction in cell viability incubated for 48 hrs by MTT assay; assay type: functional, cell-based; settings: for IC50: NCI-H446, 48 h
# [2] = Cytotoxicity against HBE (human bronchial epithelial) cells assessed as reduction in cell viability incubated for 48 hrs by MTT assay; assay type: toxicity, cell-based
# [3] = Cytotoxicity against human HL7702 cells assessed as reduction in cell viability incubated for 48 hrs by MTT assay; assay type: toxicity, cell-based; settings: HL7702 (L02) cells
# [4] = Selectivity index, ratio of IC50 for cytotoxicity against HBE (human bronchial epithelial) cells to IC50 for antiproliferative activity against human NCI-H446 cells; assay type: toxicity, cell-based; settings: HBE (human bronchial epithelial) cells versus NCI-H446 cells, read-out: Ratio IC50
# HepG2 = assay: Antiproliferative activity against human HepG2 cells assessed as reduction in cell viability incubated for 48 hrs by MTT assay; assay type: functional, cell-based; settings: HepG2, 48 h
# A549 = assay: Antiproliferative activity against human A549 cells assessed as reduction in cell viability incubated for 48 hrs by MTT assay; assay type: functional, cell-based; settings: A549, 48 h
# NCI-H446 [5] = assay: Antiproliferative activity against human NCI-H446 cells assessed as reduction in cell viability at 0.5 to 8 uM by MTT assay; assay type: functional, cell-based; settings: dose 0.5-8 µM, time 24-72 hrs, TDE = time-dependent effect
# NCI-H446 [6] = assay: Cell cycle arrest in human NCI-H446 cells assessed as decrease in S phase cells at 0.25 to 2 uM incubated for 24 hrs by PI staining based flow cytometric analysis; assay type: functional; settings: dose 0.25-2 µM
# NCI-H446 [7] = assay: Induction of apoptosis in human NCI-H446 cells assessed as early apoptotic cells at 0.25 uM incubated for 24 hrs by Annexin V-FITC/PI staining based flow cytometric analysis (reference value: 0.37 %); assay type: functional
# NCI-H446 [8] = assay: Induction of ROS production in human NCI-H446 cells assessed as increase in intracellular ROS level incubated for 24 hrs by DCFH-DA staining based flow cytometric analysis; assay type: functional, cell-based; settings: dose 0.25-2 µM
# [9] = Toxicity in Caenorhabditis elegans assessed as reduction in growth by measuring body length at 50 to 100 uM measured after 72 hrs by […] microscopic analysis; settings: dose 50-100 µM
# NCI-H446 [10] = assay: Induction of apoptosis in human NCI-H446 cells assessed as viable cells at 1 uM incubated for 24 hrs by Annexin V-FITC/PI staining based flow cytometric analysis (reference value: 96.8 %); assay type: functional; settings: read-out: Activity
# NCI-H446 [11] = assay: Cell cycle arrest in human NCI-H446 cells assessed as increase in subG1 phase cells at 0.25 to 2 uM incubated for 24 hrs by PI staining based flow cytometric analysis; assay type: functional; settings: dose 0.25-2 µM
# NCI-H446 [12] = assay: Induction of apoptosis in human NCI-H446 cells assessed as viable cells at 2 uM incubated for 24 hrs by Annexin V-FITC/PI staining based flow cytometric analysis (reference value: 96.8 %); assay type: functional; settings: read-out: Activity
# NCI-H446 [13] = assay: Induction of apoptosis in human NCI-H446 cells assessed as early apoptotic cells at 2 uM incubated for 24 hrs by Annexin V-FITC/PI staining based flow cytometric analysis (reference value: 0.37 %); assay type: functional
# NCI-H446 [14] = assay: Antiproliferative activity against human NCI-H446 cells assessed as reduction in cell viability incubated for 24 to 72 hrs by MTT assay; assay type: functional, cell-based; settings: dose 0.5-8 µM, time 24-72 hrs
# [15] = Toxicity in Caenorhabditis elegans assessed as reduction in movement speed at 20 to 100 uM measured after 72 hrs by […] microscopic analysis; settings: dose 20-100 µM
# Cell membrane = assay: Induction of mitochondrial membrane potential loss in human NCI-H446 cells incubated for 24 hrs by JC-1 staining based flow cytometric analysis; assay type: cell membranes; settings: dose 0.25-2 µM
# NCI-H446 [16] = assay: Cell cycle arrest in human NCI-H446 cells assessed as G0/G1 phase cells incubated for 24 hrs by PI staining based flow cytometric analysis (reference value: 52.37%); assay type: functional
# NCI-H446 [17] = assay: Induction of apoptosis in human NCI-H446 cells assessed as late apoptotic cells at 0.5 uM incubated for 24 hrs by Annexin V-FITC/PI staining based flow cytometric analysis (reference value: 1.71 %); assay type: functional
# NCI-H446 [18] = assay: Induction of apoptosis in human NCI-H446 cells assessed as viable cells at 0.25 uM incubated for 24 hrs by Annexin V-FITC/PI staining based flow cytometric analysis (reference value: 96.8 %); assay type: functional; settings: read-out: Activity
# NCI-H446 [19] = assay: Induction of apoptosis in human NCI-H446 cells assessed as decrease in caspase-3 level at 0.5 to 2 uM by Western blot analysis; assay type: functional, cell-based; settings: dose 0.5-2 µM
# NCI-H446 [20] = assay: Induction of apoptosis in human NCI-H446 cells assessed as necrotic cells at 0.5 uM incubated for 24 hrs by Annexin V-FITC/PI staining based flow cytometric analysis (reference value: 1.17 %); assay type: functional
# NCI-H446 [21] = assay: Induction of apoptosis in human NCI-H446 cells assessed as change in cellular nuclei morphology at 1 uM incubated for 24 hrs by DAPI staining based fluorescence inverted microscopic analysis; assay type: functional, cell-based
# [22] = Induction of apoptosis in HBE (human bronchial epithelial) cells assessed as change in nuclei morphology at 1 to 2 uM incubated for 24 hrs by DAPI staining based fluorescence inverted microscopic analysis; assay type: toxicity, cell-based; settings: dose 1-2 µM
# NCI-H446 [23] = assay: Synergistic antiproliferative activity against human NCI-H446 cells assessed as reduction in cell viability incubated for 48 hrs in presence of cisplatin by MTT assay; assay type: functional, cell-based; settings: dose 0.5-8 µM
# NCI-H446 [24] = assay: Induction of apoptosis in human NCI-H446 cells assessed as late apoptotic cells at 1 uM incubated for 24 hrs by Annexin V-FITC/PI staining based flow cytometric analysis (reference value: 1.71 %); assay type: functional
# NCI-H446 [25] = assay: Induction of apoptosis in human NCI-H446 cells assessed as late apoptotic cells at 0.25 uM incubated for 24 hrs by Annexin V-FITC/PI staining based flow cytometric analysis (reference value: 1.71 %); assay type: functional
# CDDP-resistant A549 cell [26] = assay: Sensitization of cisplatin-induced antiproliferative activity against human CDDP-resistant A549 cells assessed as inhibition of cell growth at 0.25 uM incubated for 48 hrs by MTT assay; assay type: functional, cell-based
# NCI-H446 [27] = assay: Induction of apoptosis in human NCI-H446 cells assessed as early apoptotic cells at 0.5 uM incubated for 24 hrs by Annexin V-FITC/PI staining based flow cytometric analysis (reference value: 0.37 %); assay type: functional
# [28] = Drug uptake in human NCI-H446 cells assessed as green fluorescence at 2.5 uM incubated for 5 hrs by confocal microscopic analysis; assay type: ADME, cell-based; settings: nci-h446, 5 h
# NCI-H446 [29] = assay: Induction of apoptosis in human NCI-H446 cells assessed as necrotic cells at 0.25 uM incubated for 24 hrs by Annexin V-FITC/PI staining based flow cytometric analysis (reference value: 1.17 %); assay type: functional
# NCI-H446 [30] = assay: Induction of apoptosis in human NCI-H446 cells assessed as viable cells at 0.5 uM incubated for 24 hrs by Annexin V-FITC/PI staining based flow cytometric analysis (reference value: 96.8 %); assay type: functional; settings: read-out: Activity
# NCI-H446 [31] = assay: Induction of apoptosis in human NCI-H446 cells assessed as necrotic cells at 2 uM incubated for 24 hrs by Annexin V-FITC/PI staining based flow cytometric analysis (reference value: 1.17 %); assay type: functional
# NCI-H446 [32] = assay: Induction of apoptosis in human NCI-H446 cells assessed as late apoptotic cells at 2 uM incubated for 24 hrs by Annexin V-FITC/PI staining based flow cytometric analysis (reference value: 1.71 %); assay type: functional
# NCI-H446 [33] = assay: Induction of apoptosis in human NCI-H446 cells assessed as increase in cleaved caspase-3 level at 0.5 to 2 uM by Western blot analysis; assay type: functional, cell-based; settings: dose 0.5-2 µM
# NCI-H446 [34] = assay: Induction of apoptosis in human NCI-H446 cells assessed as increase in cleaved caspase-9 level at 0.5 to 2 uM by Western blot analysis; assay type: functional, cell-based; settings: dose 0.5-2 µM
# CDDP-resistant A549 cell [35] = assay: Antiproliferative activity against human CDDP-resistant A549 cells assessed as reduction in cell viability at 0.5 to 16 uM incubated for 48 hrs by MTT assay; assay type: functional, cell-based; settings: dose 0.5-16 µM
# [36] = Drug localization in human NCI-H446 cell mitochondria at 2.5 uM incubated for 5 hrs by MitoTracker Red CMXRos dye based confocal microscopic analysis; assay type: ADME; settings: nci-h446, 5 h
# NCI-H446 [37] = assay: Induction of apoptosis in human NCI-H446 cells assessed as decrease in caspase-9 level at 0.5 to 2 uM by Western blot analysis; assay type: functional, cell-based; settings: dose 0.5-2 µM
# NCI-H446 [38] = assay: Induction of apoptosis in human NCI-H446 cells assessed as decrease in PARP level at 0.5 to 2 uM by Western blot analysis; assay type: functional, cell-based; settings: dose 0.5-2 µM
# NCI-H446 [39] = assay: Induction of apoptosis in human NCI-H446 cells assessed as necrotic cells at 1 uM incubated for 24 hrs by Annexin V-FITC/PI staining based flow cytometric analysis (reference value: 1.17 %); assay type: functional
# NCI-H446 [40] = assay: Induction of apoptosis in human NCI-H446 cells assessed as early apoptotic cells at 1 uM incubated for 24 hrs by Annexin V-FITC/PI staining based flow cytometric analysis (reference value: 0.37 %); assay type: functional
smiles,measurement,setting,value
C=CCc1ccc(OC)c(-c2ccc(OCCCOC(=O)Cc3c4[n+](cc5c(OC)c(OC)ccc35)CCc3cc5c(cc3-4)OCO5)c(CC=C)c2)c1,IC50,NCI-H446 [1],3.53 µM
same,IC50 at 48 h,[2],21.6 µM
same,IC50 at 48 h,[3],4.76 µM
same,selectivity ratio,[4],3.53
same,IC50,HepG2,3.14 µM
same,IC50,A549,7.74 µM
C=CCc1ccc(OCCC)c(-c2ccc(OCCC[n+]3ccc(/C=C/c4c[nH]c5ccccc45)cc3)c(CC=C)c2)c1.[Br-],Activity,NCI-H446 [5],Tde
same,Activity,NCI-H446 [6],Active
same,Activity,NCI-H446 [7],39.9%
same,Activity,NCI-H446 [8],Dose-Dependent Effect
same,Activity,[9],Non-Toxic
same,viability at 1 µM,NCI-H446 [10],1.32%
same,Activity,NCI-H446 [11],Active
same,viability at 2 µM,NCI-H446 [12],1.97%
same,Activity,NCI-H446 [1],Dose-Dependent Effect
same,IC50,NCI-H446 [1],2.87 µM
same,Activity,NCI-H446 [13],2.19%
same,Activity,NCI-H446 [14],Dose-Dependent Effect
same,Activity,[15],Non-Toxic
same,Activity,Cell membrane,Dose-Dependent Effect
same,Activity,NCI-H446 [16],68.31%
same,IC50 at 48 h,[2],23.1 µM
same,Activity,NCI-H446 [17],88.1%
same,viability at 0.25 µM,NCI-H446 [18],2.58%
same,IC50 at 48 h,[3],2.62 µM
same,Activity,NCI-H446 [19],Active
same,Activity,NCI-H446 [20],0.08%
same,Activity,NCI-H446 [21],Active
same,Activity,[22],Non-Toxic
same,Activity,NCI-H446 [23],Dose-Dependent Effect
same,Activity,NCI-H446 [24],95.4%
same,Activity,NCI-H446 [25],57.4%
same,Activity,CDDP-resistant A549 cell [26],Active
same,Activity,NCI-H446 [27],10.1%
same,Drug uptake,[28],Active
same,Activity,NCI-H446 [29],0.14%
same,viability at 0.5 µM,NCI-H446 [30],1.75%
same,Activity,NCI-H446 [31],0.45%
same,Activity,NCI-H446 [32],95.4%
same,Activity,NCI-H446 [33],Active
same,selectivity ratio,[4],~10
same,Activity,NCI-H446 [34],Active
same,IC50,HepG2,2.48 µM
same,IC50,A549,4.6 µM
same,Activity,CDDP-resistant A549 cell [35],inactive
same,Drug uptake,[36],Active
same,Activity,NCI-H446 [37],Active
same,Activity,NCI-H446 [38],Active
same,Activity,NCI-H446 [39],0.13%
same,Activity,NCI-H446 [40],2.12%
